# Values quoted from earlier work, collected in patent US4008220A, “Penicillins” (Sumitomo Chemical Company, Limited, priority 1972, dated 1977).
# How the values were obtained:
# Pseudomonas = conditions: in words; cited from earlier work
# [1] = tested on: various gram-positive and gram-negative bacteria; conditions: in words; cited from earlier work
smiles,measurement,setting,value
"CC1(C)S[C@@H]2C(NC(=O)C(N)c3ccccc3)C(=O)N2[C@H]1C(=O)O (stereo partly drawn) [Ampicillin, 6-(α-aminophenylacetamido)-penicillanic acid]",antimicrobial activity against Pseudomonas,Pseudomonas,does not exert any appreciable antimicrobial activity against Pseudomonas
same,growth inhibition / antimicrobial activity against gram-positive and gram-negative bacteria,[1],inhibits the growth of various gram-positive and gram-negativebacteria
